Measurements taken from PubChem BioAssay (NCI).
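Step 1: Grow cells in 96-well plates. Step 2: Expose to compound for 48 hours at 5 concentrations. Step 3: Interpolate endpoints linearly; if unreached, use highest concentration. GI50 = concentration required for 50% inhibition of growth. TGI denotes the concentration required for complete inhibition of growth.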

Tests used:
Experiment in all cases: NCI tumour cell line growth inhibition, 48 h
[1] = system: A498 renal
[2] = system: HL-60(TB) leukemia
[3] = system: SK-MEL-5 melanoma
[4] = system: ACHN renal
[5] = system: CAKI-1 renal
[6] = system: DU-145 prostate
[7] = system: HCT-15 colon
[8] = system: MDA-MB-435
[9] = system: NCI-H460 lung
[10] = system: OVCAR-3 ovarian
[11] = system: OVCAR-4 ovarian
[12] = system: OVCAR-5 ovarian
[13] = system: SW-620 colon
[14] = system: 786-0 renal
[15] = system: A549 NSCLC
[16] = system: COLO 205 colon
[17] = system: HCC-2998 colon
[18] = system: HCT-116 colon
[19] = system: HOP-92 NSCLC
[20] = system: HT29 colon
[21] = system: MALME-3M melanoma
[22] = system: MDA-MB-231 breast
[23] = system: NCI-H522 lung
[24] = system: OVCAR-8 ovarian
[25] = system: PC-3 prostate
[26] = system: SF-295 CNS
[27] = system: SK-MEL-28 melanoma
[28] = system: SK-OV-3 ovarian
[29] = system: SN12C renal
[30] = system: SNB-75 CNS
[31] = system: SR leukemia
[32] = system: TK-10 renal
[33] = system: UACC-62 melanoma
[34] = system: UO-31 renal
[35] = system: K-562 leukemia
[36] = system: BT-549 breast
[37] = system: HS 578T breast
[38] = system: NCI-H226 lung
[39] = system: NCI/ADR-RES ovarian
[40] = system: RXF 393 renal
[41] = system: SF-539 CNS
[42] = system: CCRF-CEM leukemia
[43] = system: EKVX NSCLC
[44] = system: HOP-62 NSCLC
[45] = system: IGROV1 ovarian
[46] = system: KM12 colon
[47] = system: LOX IMVI melanoma
[48] = system: M14 melanoma
[49] = system: MCF7 breast
[50] = system: NCI-H23 lung
[51] = system: RPMI-8226 leukemia
[52] = system: SF-268 CNS
[53] = system: SK-MEL-2 melanoma
[54] = system: SNB-19 CNS
[55] = system: T-47D breast
[56] = system: U251 CNS
[57] = system: UACC-257 melanoma

SMILES: Cc1cn(-c2cc(F)cc(NC(=O)c3ccc(C)c(Nc4nccc(-c5cccnc5)n4)c3)c2)cn1
- GI50 [1]: > 100000 nM
- TGI [1]: > 100000 nM
- GI50 [2]: > 100000 nM
- TGI [2]: > 100000 nM
- GI50 [3]: > 100000 nM
- TGI [3]: > 100000 nM

SMILES: C=C(CNCCc1ccc(O)cc1)[C@@H]1CC[C@]2(COC3CCCCO3)CC[C@]3(C)[C@H](CC[C@@H]4[C@@]5(C)CCC(NCCO)C(C)(C)[C@@H]5CC[C@]43C)[C@@H]12 (some centres not stated)
- GI50 [1]: 1330 nM
- TGI [1]: 2720 nM
- GI50 [4]: 1640 nM
- TGI [4]: 3040 nM
- GI50 [5]: 1520 nM
- TGI [5]: 2860 nM
- GI50 [6]: 1250 nM
- TGI [6]: 2580 nM
- GI50 [7]: 390 nM
- TGI [7]: 1490 nM
- GI50 [8]: 1350 nM
- TGI [8]: 2650 nM
- GI50 [9]: 339 nM
- TGI [9]: 1070 nM
- GI50 [10]: 1280 nM
- TGI [10]: 2770 nM
- GI50 [11]: 1390 nM
- TGI [11]: 2820 nM
- GI50 [12]: 1670 nM
- TGI [12]: 3130 nM
- GI50 [13]: 211 nM
- TGI [13]: 453 nM

SMILES: OC(c1cc2ccc(C(F)(F)F)cc2c2cc(C(F)(F)F)ccc12)C1CCCCN1 (configuration not stated)
- TGI [14]: 2980 nM
- TGI [15]: 3260 nM
- TGI [4]: 2620 nM
- TGI [5]: 3130 nM
- TGI [16]: 3050 nM
- TGI [6]: 3210 nM
- TGI [17]: 2620 nM
- TGI [18]: 2800 nM
- TGI [2]: > 100000 nM
- TGI [19]: 3190 nM
- TGI [20]: 3400 nM
- TGI [21]: 1500 nM
- TGI [22]: 3200 nM
- TGI [23]: 3160 nM
- TGI [12]: 3180 nM
- GI50 [24]: 1860 nM
- TGI [24]: 3740 nM
- TGI [25]: 2920 nM
- GI50 [26]: 1830 nM
- TGI [26]: 3410 nM
- TGI [27]: 3360 nM
- TGI [3]: 2890 nM
- TGI [28]: 3820 nM
- TGI [29]: 3260 nM
- TGI [30]: 2570 nM
- TGI [31]: 4990 nM
- TGI [13]: 2840 nM
- TGI [32]: 3710 nM
- TGI [33]: 3490 nM
- TGI [34]: 2710 nM

SMILES: CNc1ccc(C(=O)CC(O)CCC(C)C2OC(=O)CC(O)CC(=O)CC(O)CC(O)CC(O)CC(O)CC3(O)CC(O)C(C(=O)NCCN4CCCCC4)C(CC(OC4OC(C)C(O)C(N)C4O)/C=C/C=C/C=C/C=C\C=C/C=C/C=C/C2C)O3)cc1 (configuration not stated)
- TGI [2]: > 100000 nM
- TGI [35]: > 100000 nM

SMILES: CN(C)c1ccc(-c2ccc(-c3ccc(C(=N)N)cc3)s2)cc1
- GI50 [14]: 2210 nM
- TGI [14]: 5060 nM
- GI50 [1]: 15.5 nM
- TGI [1]: 86.6 nM
- GI50 [36]: 21000 nM
- TGI [36]: 78300 nM
- GI50 [5]: 1790 nM
- TGI [5]: 3770 nM
- GI50 [6]: 1800 nM
- TGI [6]: 3370 nM
- GI50 [2]: 2030 nM
- TGI [2]: 4570 nM
- GI50 [37]: 2140 nM
- TGI [37]: 5190 nM
- GI50 [22]: 1810 nM
- TGI [22]: 3570 nM
- GI50 [38]: 32600 nM
- TGI [38]: > 100000 nM
- GI50 [39]: 2350 nM
- TGI [39]: 5450 nM
- GI50 [12]: 1730 nM
- TGI [12]: 3380 nM
- GI50 [40]: 1810 nM
- TGI [40]: 3990 nM
- GI50 [26]: 1900 nM
- TGI [26]: 3610 nM
- GI50 [41]: 1760 nM
- TGI [41]: 3380 nM
- GI50 [34]: 1640 nM
- TGI [34]: 3220 nM

SMILES: COc1cnc2c(c1)C(=O)c1c-2n(CCCN2CCN(C)CC2)c(=O)c2cc([N+](=O)[O-])ccc12
- GI50 [14]: 1640 nM
- TGI [14]: 3130 nM
- GI50 [15]: 128 nM
- TGI [15]: 337 nM
- GI50 [5]: 1340 nM
- TGI [5]: 2800 nM
- GI50 [42]: 68.3 nM
- TGI [42]: 834 nM
- GI50 [16]: 1640 nM
- TGI [16]: 3380 nM
- GI50 [6]: 220 nM
- TGI [6]: 587 nM
- GI50 [43]: 514 nM
- TGI [43]: 2050 nM
- GI50 [17]: 14600 nM
- TGI [17]: 27700 nM
- GI50 [7]: 249 nM
- TGI [7]: 1260 nM
- GI50 [2]: 168 nM
- TGI [2]: 372 nM
- GI50 [44]: 81.3 nM
- TGI [44]: 392 nM
- GI50 [19]: 1820 nM
- TGI [19]: 4370 nM
- GI50 [37]: 14500 nM
- TGI [37]: 31000 nM
- GI50 [20]: 167 nM
- TGI [20]: 352 nM
- GI50 [45]: 351 nM
- TGI [45]: 2260 nM
- GI50 [35]: 154 nM
- TGI [35]: 395 nM
- GI50 [46]: 2110 nM
- TGI [46]: 7800 nM
- GI50 [47]: 180 nM
- TGI [47]: 396 nM
- GI50 [48]: 131 nM
- TGI [48]: 370 nM
- GI50 [49]: 16.2 nM
- TGI [49]: 1200 nM
- GI50 [8]: 166 nM
- TGI [8]: 334 nM
- GI50 [38]: 13700 nM
- TGI [38]: 35800 nM
- GI50 [50]: 362 nM
- TGI [50]: 2600 nM
- GI50 [9]: 135 nM
- TGI [9]: 365 nM
- GI50 [23]: 479 nM
- TGI [23]: 2390 nM
- GI50 [39]: 323 nM
- TGI [39]: 5820 nM
- GI50 [10]: 171 nM
- TGI [10]: 359 nM
- GI50 [11]: 1460 nM
- TGI [11]: 3310 nM
- GI50 [12]: 22100 nM
- TGI [12]: 46500 nM
- GI50 [24]: 1190 nM
- TGI [24]: 6960 nM
- GI50 [51]: 226 nM
- TGI [51]: 917 nM
- GI50 [40]: 11400 nM
- TGI [40]: 30400 nM
- GI50 [52]: 206 nM
- TGI [52]: 1640 nM
- GI50 [26]: 69.8 nM
- TGI [26]: 483 nM
- GI50 [41]: 191 nM
- TGI [41]: 386 nM
- GI50 [53]: 11000 nM
- TGI [53]: 23200 nM
- GI50 [3]: 1310 nM
- TGI [3]: 2640 nM
- GI50 [28]: 1800 nM
- TGI [28]: 3590 nM
- GI50 [54]: 399 nM
- TGI [54]: 5010 nM
- GI50 [30]: 1550 nM
- TGI [30]: 2950 nM
- GI50 [31]: 24.9 nM
- TGI [31]: 365 nM
- GI50 [13]: 22.7 nM
- TGI [13]: 1380 nM
- GI50 [55]: 1770 nM
- TGI [55]: 4010 nM
- GI50 [32]: 237 nM
- TGI [32]: 715 nM
- GI50 [56]: 165 nM
- TGI [56]: 386 nM
- GI50 [57]: 2460 nM
- TGI [57]: 5870 nM
